Measurements as given in doi:10.1101/2024.09.17.613365, “Type-II kinase inhibitors that target Parkinson’s Disease-associated LRRK2” (bioRxiv, 2025).

These molecules were tested against T1, LRRK2^KW (Homo sapiens, UniProt Q5S007) (assay: not given). Settings: binder.
T1 construct: Kinase and WD40 domain construct (KW)
Design: Differential scanning fluorometry, thermal stabilization of LRRK2 KW by compound
Excerpt: Next, we evaluated the potency and selectivity of these new compounds. We performed on-target screening by measuring the thermostability increase of LRRK2^KW in the presence of the new compounds using DSF (Supporting Information Table S2). We also determined the in vitro IC50 (median inhibitory concentration) values for each of the new compounds by purifying LRRK2^RCKW and measuring its kinase activity in the presence of our new inhibitors using the PhosphoSense® activity assay from AssayQuant (Supporting Information Table S2). Finally, we estimated the kinome selectivity of each compound by measuring the thermostability increase of approximately 100 representative kinases in the presence of the compounds via DSF (Supporting Information Table S2). […] Additionally, we screened a library of published type-II inhibitors to identify those that bind to LRRK2^KW (a Kinase and WD40 domain construct of LRRK2) with high affinity.

T1 sequence (Q5S007 whole entry, the tested form may be a part): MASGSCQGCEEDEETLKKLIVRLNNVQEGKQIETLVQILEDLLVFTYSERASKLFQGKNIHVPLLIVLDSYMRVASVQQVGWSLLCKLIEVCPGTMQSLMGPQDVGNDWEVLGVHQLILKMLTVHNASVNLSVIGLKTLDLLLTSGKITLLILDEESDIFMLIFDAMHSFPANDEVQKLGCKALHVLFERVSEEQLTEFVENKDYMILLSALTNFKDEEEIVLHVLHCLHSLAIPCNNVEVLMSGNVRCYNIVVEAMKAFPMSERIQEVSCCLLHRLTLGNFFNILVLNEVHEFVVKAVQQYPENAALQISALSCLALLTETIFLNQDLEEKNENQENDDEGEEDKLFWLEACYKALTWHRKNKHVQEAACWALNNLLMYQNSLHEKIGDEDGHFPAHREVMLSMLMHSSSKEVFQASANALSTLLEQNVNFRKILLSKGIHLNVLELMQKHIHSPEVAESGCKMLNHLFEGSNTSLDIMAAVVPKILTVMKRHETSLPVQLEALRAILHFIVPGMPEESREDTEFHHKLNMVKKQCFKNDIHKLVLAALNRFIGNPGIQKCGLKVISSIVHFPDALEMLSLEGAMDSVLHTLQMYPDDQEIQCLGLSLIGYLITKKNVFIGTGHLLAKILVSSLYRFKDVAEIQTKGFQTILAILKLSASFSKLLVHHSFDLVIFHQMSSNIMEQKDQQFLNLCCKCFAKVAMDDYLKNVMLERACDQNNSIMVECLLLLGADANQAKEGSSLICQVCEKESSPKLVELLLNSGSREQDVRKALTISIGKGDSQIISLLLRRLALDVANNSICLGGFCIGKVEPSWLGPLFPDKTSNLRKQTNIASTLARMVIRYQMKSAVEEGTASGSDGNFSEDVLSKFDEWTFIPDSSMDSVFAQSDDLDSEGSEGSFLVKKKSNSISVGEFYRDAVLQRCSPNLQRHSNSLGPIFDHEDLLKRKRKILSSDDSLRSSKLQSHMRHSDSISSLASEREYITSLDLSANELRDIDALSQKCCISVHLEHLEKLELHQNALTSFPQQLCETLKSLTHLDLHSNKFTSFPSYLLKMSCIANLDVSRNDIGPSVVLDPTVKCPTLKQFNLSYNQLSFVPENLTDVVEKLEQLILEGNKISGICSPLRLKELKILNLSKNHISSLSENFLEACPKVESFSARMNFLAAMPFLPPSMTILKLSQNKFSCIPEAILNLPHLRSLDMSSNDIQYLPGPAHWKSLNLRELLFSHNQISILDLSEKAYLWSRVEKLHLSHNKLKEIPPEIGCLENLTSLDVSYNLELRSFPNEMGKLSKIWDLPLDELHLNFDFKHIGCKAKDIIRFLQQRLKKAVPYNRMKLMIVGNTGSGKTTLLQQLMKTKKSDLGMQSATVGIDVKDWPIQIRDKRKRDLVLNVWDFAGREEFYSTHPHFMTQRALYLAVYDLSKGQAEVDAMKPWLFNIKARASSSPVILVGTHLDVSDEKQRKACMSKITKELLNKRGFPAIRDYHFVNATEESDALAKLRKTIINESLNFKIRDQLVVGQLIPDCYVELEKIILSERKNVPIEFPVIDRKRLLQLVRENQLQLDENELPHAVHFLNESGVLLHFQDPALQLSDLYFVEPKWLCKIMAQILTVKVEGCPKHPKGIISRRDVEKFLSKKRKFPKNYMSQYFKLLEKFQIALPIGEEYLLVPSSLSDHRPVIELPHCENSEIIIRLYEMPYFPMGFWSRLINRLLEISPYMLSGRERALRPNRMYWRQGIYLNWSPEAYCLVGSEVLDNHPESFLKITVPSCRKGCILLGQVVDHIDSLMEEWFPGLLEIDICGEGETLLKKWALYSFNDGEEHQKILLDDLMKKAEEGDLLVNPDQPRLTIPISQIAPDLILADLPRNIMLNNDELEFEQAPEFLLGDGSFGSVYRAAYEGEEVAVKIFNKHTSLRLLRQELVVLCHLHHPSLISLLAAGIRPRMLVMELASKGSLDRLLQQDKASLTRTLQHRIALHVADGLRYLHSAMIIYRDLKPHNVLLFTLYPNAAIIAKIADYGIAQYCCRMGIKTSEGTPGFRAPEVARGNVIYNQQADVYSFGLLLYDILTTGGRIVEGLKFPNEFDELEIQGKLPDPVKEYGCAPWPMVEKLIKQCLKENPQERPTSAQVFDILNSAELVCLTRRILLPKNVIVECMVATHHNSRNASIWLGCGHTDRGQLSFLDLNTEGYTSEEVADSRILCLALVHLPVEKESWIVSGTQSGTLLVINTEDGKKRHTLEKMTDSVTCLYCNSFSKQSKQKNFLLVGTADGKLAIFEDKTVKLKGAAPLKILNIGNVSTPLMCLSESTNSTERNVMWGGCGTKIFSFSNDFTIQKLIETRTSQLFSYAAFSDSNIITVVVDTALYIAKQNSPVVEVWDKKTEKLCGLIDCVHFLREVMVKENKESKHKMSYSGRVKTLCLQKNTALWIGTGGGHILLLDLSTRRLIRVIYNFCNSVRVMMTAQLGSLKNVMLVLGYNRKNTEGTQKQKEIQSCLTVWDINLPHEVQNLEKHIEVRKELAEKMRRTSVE

| SMILES | ΔTm [K] |
| --- | --- |
| COc1cc(C(=O)N2CCOCC2)c(F)cc1Nc1nc(N(C)C)c2c(Cl)c[nH]c2n1 [compound 33] | 16.0 |
| Cc1ccc(-n2nc(C(C)(C)C)cc2NC(=O)Nc2cccc(-c3c[nH]c4nc(Cl)nc(N5CCOCC5)c34)c2)cc1 [compound 30, RN277] | 18.0 |
| CCSc1nc(NC)c2c(-c3cccc(NC(=O)Nc4cc(C(C)(C)C)nn4-c4ccc(C)cc4)c3)c[nH]c2n1 [compound 32, RN341] | 19.9 |

The remaining lines, values ahead:

| ΔTm [K] | SMILES |
| --- | --- |
| 0.0 | COc1cc(C(=O)N2CCOCC2)c(F)cc1Nc1nc(N(C)C)c2c(-c3cccc(NC(=O)Nc4cc(C(C)(C)C)nn4-c4ccc(C)cc4)c3)c[nH]c2n1 [compound 36, 1-(3-(tert-butyl)-1-(p-tolyl)-1H-pyrazol-5-yl)-3-(3-(4-(dimethylamino)-2-((5-fluoro-2-methoxy-4-(morpholine-4-carbonyl)phenyl)amino)-7H-pyrrolo[2,3-d]pyrimidin-5-yl)phenyl)urea] |
| 1.5 | COc1cc(S(C)(=O)=O)ccc1Nc1nc(N(C)C)c2c(-c3cccc(NC(=O)Nc4cc(C(C)(C)C)nn4-c4ccc5ncccc5c4)c3)c[nH]c2n1 [compound 37, 1-(3-(tert-butyl)-1-(quinolin-6-yl)-1H-pyrazol-5-yl)-3-(3-(4-(dimethylamino)-2-((2-methoxy-4-(methylsulfonyl)phenyl)amino)-7H-pyrrolo[2,3-d]pyrimidin-5-yl)phenyl)urea] |
| 1.0 | COc1cc(S(C)(=O)=O)ccc1Nc1nc(N(C)C)c2c(-c3cccc(NC(=O)Nc4cc(C(C)(C)C)nn4-c4ccc(C)cc4)c3)c[nH]c2n1 [compound 35, 1-(3-(tert-butyl)-1-(p-tolyl)-1H-pyrazol-5-yl)-3-(3-(4-(dimethylamino)-2-((2-methoxy-4-(methylsulfonyl)phenyl)amino)-7H-pyrrolo[2,3-d]pyrimidin-5-yl)phenyl)urea] |

Molecular target: T1, LRRK2^KW
Assay: not given
Design: DSF thermal shift of purified LRRK2 KW construct with compound
Settings: binder
Remark: another data set of the same source
Excerpt: Additionally, we screened a library of published type-II inhibitors to identify those that bind to LRRK2^KW (a Kinase and WD40 domain construct of LRRK2) with high affinity. […] Next, we evaluated the potency and selectivity of these new compounds. We performed on-target screening by measuring the thermostability increase of LRRK2^KW in the presence of the new compounds using DSF (Supporting Information Table S2). We also determined the in vitro IC50 (median inhibitory concentration) values for each of the new compounds by purifying LRRK2^RCKW and measuring its kinase activity in the presence of our new inhibitors using the PhosphoSense® activity assay from AssayQuant (Supporting Information Table S2). Finally, we estimated the kinome selectivity of each compound by measuring the thermostability increase of approximately 100 representative kinases in the presence of the compounds via DSF (Supporting Information Table S2).

| SMILES | dTm LRRK2(KW) [K] | ∆Tm [K] |
| --- | --- | --- |
| Cc1ccc(NC(=O)c2cccc(C(C)(C)C#N)c2)cc1Nc1ccc2ncn(C)c(=O)c2c1 [AZ 628] | -0.5 | – |
| Cc1ccc(-n2nc(C(C)(C)C)cc2NC(=O)Nc2cc(COc3cccnc3)[nH]n2)cc1 [PF-4618433] | 11 | – |
| N#CC1(c2ccc(NC(=O)c3cccnc3NCc3ccncc3)cc2)CCCC1 [Apatinib] | -1 | – |
| Cc1ccc(C(=O)Nc2cccc(C(F)(F)F)c2)cc1Nc1nc(-c2cccnc2)nc2c1cnn2C [NVP-BHG712] | -0.5 | – |
| NC(=O)C1(C(=O)N(c2ccc(F)cc2)c2ccc(Nc3ccc4n[nH]cc4c3)cc2)CC1 [compound 49, N-(4-((2H-indazol-5-yl)amino)phenyl)-N-(4-fluorophenyl)cyclopropane-1,1-dicarboxamide] | – | 2.0 |
| Cc1ccc(NC(=O)c2cccc(N(C)C)c2)cc1NC(=O)c1ccc(O)cc1 [ZM336372] | -1 | – |
| Cc1cn(-c2cc(NC(=O)c3ccc(C)c(Nc4ccc5n[nH]cc5c4)c3)cc(C(F)(F)F)c2)cn1 [compound 50, 3-((2H-indazol-5-yl)amino)-4-methyl-N-(3-(4-methyl-1H-imidazol-1-yl)-5-(trifluoromethyl)phenyl)benzamide] | – | 1.5 |

Other lines, results leading:

| dTm LRRK2(KW) [K] | ∆Tm [K] | SMILES |
| --- | --- | --- |
| -2.5 | – | Cc1cn(-c2cc(NC(=O)c3ccc(C)c(Nc4nccc(-c5cccnc5)n4)c3)cc(C(F)(F)F)c2)cn1 [Nilotinib] |
| -0.5 | – | CC1(C)CNc2cc(NC(=O)c3cccnc3NCc3ccncc3)ccc21 [Motesanib] |
| – | 1.0 | NC(=O)C1(C(=O)N(c2ccc(F)cc2)c2ccc3cn[nH]c3c2)CC1 [compound 51, N-(4-fluorophenyl)-N-(1H-indazol-6-yl)cyclopropane-1,1-dicarboxamide] |
| – | 1.0 | NC(=O)C1(C(=O)N(c2ccc(F)cc2)c2ccc(Oc3ccc4n[nH]cc4c3)cc2)CC1 [compound 48, N-(4-((2H-indazol-5-yl)oxy)phenyl)-N-(4-fluorophenyl)cyclopropane-1,1-dicarboxamide] |
| 5.5 | – | CNC(=O)c1cc(Oc2ccc(NC(=O)Nc3ccc(Cl)c(C(F)(F)F)c3)c(F)c2)ccn1 [Regorafinib] |
| 3 | – | COc1cc(Oc2ccnc3cc(OC)c(OC)cc23)ccc1NC(=O)NC(C)c1nccs1 (stereo not shown) [KI20227] |
| -0.5 | – | CCN1CCN(Cc2ccc(NC(=O)c3ccc(C)c(NC(=O)c4cncc(-c5cccs5)c4)c3)cc2C(F)(F)F)CC1 [ALW-II-41-27] |
| 6.5 | – | COc1cc2c(Nc3ccc(NC(=O)c4ccccc4)cc3)ncnc2cc1OCCCN1CCOCC1 [ZM447439] |

These molecules were tested against T2, leucine-rich repeat kinase 2 (LRRK2) (Homo sapiens, UniProt Q5S007) (assay: biochemical). Settings: not given.
T2 construct: LRRK2^RCKW (ROC, COR, Kinase, WD40)
T2 sequence (Q5S007 1327-2527 limits assumed): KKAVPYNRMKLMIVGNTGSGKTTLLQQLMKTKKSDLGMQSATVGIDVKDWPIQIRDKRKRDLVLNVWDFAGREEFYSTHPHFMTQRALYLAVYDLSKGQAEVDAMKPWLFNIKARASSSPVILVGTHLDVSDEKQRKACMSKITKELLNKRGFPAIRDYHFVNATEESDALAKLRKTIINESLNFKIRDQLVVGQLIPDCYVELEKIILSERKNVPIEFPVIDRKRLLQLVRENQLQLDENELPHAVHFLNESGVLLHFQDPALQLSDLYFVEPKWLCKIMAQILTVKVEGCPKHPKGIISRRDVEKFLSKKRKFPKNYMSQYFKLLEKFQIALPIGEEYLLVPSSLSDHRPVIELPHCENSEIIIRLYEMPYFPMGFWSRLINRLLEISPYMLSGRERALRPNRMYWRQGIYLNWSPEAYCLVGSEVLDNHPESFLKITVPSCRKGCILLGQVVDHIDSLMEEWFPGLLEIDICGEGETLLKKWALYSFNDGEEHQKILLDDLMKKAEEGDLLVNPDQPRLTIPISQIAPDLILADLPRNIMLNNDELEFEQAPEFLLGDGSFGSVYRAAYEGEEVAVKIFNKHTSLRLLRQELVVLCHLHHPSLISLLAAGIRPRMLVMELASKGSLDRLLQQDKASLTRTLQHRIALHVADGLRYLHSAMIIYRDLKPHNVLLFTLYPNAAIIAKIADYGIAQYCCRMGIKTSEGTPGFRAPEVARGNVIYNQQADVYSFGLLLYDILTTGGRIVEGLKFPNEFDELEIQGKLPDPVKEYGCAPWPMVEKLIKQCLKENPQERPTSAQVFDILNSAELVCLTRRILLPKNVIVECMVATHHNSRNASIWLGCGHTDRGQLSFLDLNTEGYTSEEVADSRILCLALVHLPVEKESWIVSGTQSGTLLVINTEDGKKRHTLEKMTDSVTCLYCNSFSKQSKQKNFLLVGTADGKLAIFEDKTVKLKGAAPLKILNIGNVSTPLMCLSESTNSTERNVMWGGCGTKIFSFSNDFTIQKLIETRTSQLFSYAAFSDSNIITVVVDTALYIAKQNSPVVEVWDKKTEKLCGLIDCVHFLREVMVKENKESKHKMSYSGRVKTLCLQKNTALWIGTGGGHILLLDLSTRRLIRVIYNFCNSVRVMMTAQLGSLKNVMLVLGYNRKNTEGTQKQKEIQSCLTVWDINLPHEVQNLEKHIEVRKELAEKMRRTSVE
Design: PhosphoSense (AssayQuant) kinase activity assay with purified LRRK2 RCKW
Excerpt: Next, we evaluated the potency and selectivity of these new compounds. We performed on-target screening by measuring the thermostability increase of LRRK2^KW in the presence of the new compounds using DSF (Supporting Information Table S2). We also determined the in vitro IC50 (median inhibitory concentration) values for each of the new compounds by purifying LRRK2^RCKW and measuring its kinase activity in the presence of our new inhibitors using the PhosphoSense® activity assay from AssayQuant (Supporting Information Table S2). Finally, we estimated the kinome selectivity of each compound by measuring the thermostability increase of approximately 100 representative kinases in the presence of the compounds via DSF (Supporting Information Table S2).

| SMILES | IC50 [µM] |
| --- | --- |
| Cc1ccc(-c2c[nH]c3ncnc(N4CCOCC4)c23)cc1N(C(=O)C1(C(N)=O)CC1)c1ccc(F)cc1 [compound 7, N-(4-fluorophenyl)-N-(2-methyl-5-(4-morpholino-7H-pyrrolo[2,3-d]pyrimidin-5-yl)phenyl)cyclopropane-1,1-dicarboxamide] | 10.5 ± 1.02 |
| Cc1cc(-c2c[nH]c3ncnc(N4CCOCC4)c23)cc(N(C(=O)C2(C(N)=O)CC2)c2ccc(F)cc2)c1 [compound 6, N-(4-fluorophenyl)-N-(3-methyl-5-(4-morpholino-7H-pyrrolo[2,3-d]pyrimidin-5-yl)phenyl)cyclopropane-1,1-dicarboxamide] | 2.15 ± 0.076 |

More lines, now with the values ahead:

| IC50 [µM] | SMILES |
| --- | --- |
| 2.11 ± 1.19 | Cn1cc(N(C(=O)C2(C(N)=O)CC2)c2cccc(-c3c[nH]c4ncnc(N5CCOCC5)c34)c2)cn1 [compound 9, N-(1-methyl-1H-pyrazol-4-yl)-N-(3-(4-morpholino-7H-pyrrolo[2,3-d]pyrimidin-5-yl)phenyl)cyclopropane-1,1-dicarboxamide] |
| 0.694 ± 0.001 | NC(=O)C1(C(=O)N(c2ccc(F)cc2)c2cccc(-c3c[nH]c4ncnc(N5CCOCC5)c34)c2)CCCC1 [compound 3, N-(4-fluorophenyl)-N-(3-(4-morpholino-7H-pyrrolo[2,3-d]pyrimidin-5-yl)phenyl)cyclopentane-1,1-dicarboxamide] |
| 0.185 ± 0.01 | NC(=O)C1(C(=O)N(c2ccc(F)cc2)c2cccc(-c3c[nH]c4ncnc(N5CCOCC5)c34)c2)CC1 [compound 2, N-(4-fluorophenyl)-N-(3-(4-morpholino-7H-pyrrolo[2,3-d]pyrimidin-5-yl)phenyl)cyclopropane-1,1-dicarboxamide] |
| 9.58 ± 0.565 | Cc1ccc(N(C(=O)C2(C(N)=O)CC2)c2ccc(F)cc2)cc1-c1c[nH]c2ncnc(N3CCOCC3)c12 [compound 5, N-(4-fluorophenyl)-N-(4-methyl-3-(4-morpholino-7H-pyrrolo[2,3-d]pyrimidin-5-yl)phenyl)cyclopropane-1,1-dicarboxamide] |

Same assay, conditions: read-out: IC50 (cells in μM)

| SMILES | IC50 [µM] |
| --- | --- |
| NC(=O)C1(C(=O)N(c2ccc(F)cc2)c2ccc(Nc3ccc4n[nH]cc4c3)cc2)CC1 [compound 49, N-(4-((2H-indazol-5-yl)amino)phenyl)-N-(4-fluorophenyl)cyclopropane-1,1-dicarboxamide] | > 15 |
| Cc1cn(-c2cc(NC(=O)c3ccc(C)c(Nc4ccc5n[nH]cc5c4)c3)cc(C(F)(F)F)c2)cn1 [compound 50, 3-((2H-indazol-5-yl)amino)-4-methyl-N-(3-(4-methyl-1H-imidazol-1-yl)-5-(trifluoromethyl)phenyl)benzamide] | > 15 |

Further lines, results first:

| IC50 [µM] | SMILES |
| --- | --- |
| > 15 | NC(=O)C1(C(=O)N(c2ccc(F)cc2)c2ccc3cn[nH]c3c2)CC1 [compound 51, N-(4-fluorophenyl)-N-(1H-indazol-6-yl)cyclopropane-1,1-dicarboxamide] |
| > 15 | NC(=O)C1(C(=O)N(c2ccc(F)cc2)c2ccc(Oc3ccc4n[nH]cc4c3)cc2)CC1 [compound 48, N-(4-((2H-indazol-5-yl)oxy)phenyl)-N-(4-fluorophenyl)cyclopropane-1,1-dicarboxamide] |
